The record followed here is patent publication US5780642A, “Imidazole derivatives as therapeutic agents” (KNOLL Aktiengesellschaft, priority 1993, dated 1998).

pIC50: −log10 of the molar value. Structures can show the parent of a compound that is named as a salt.

A word on the pIC50: it is the IC50 on a negative log10 scale, so that one unit is a factor of ten.

One assay has as its system Zymosan Stimulated Macrophages (arachidonic acid release). In words: Test A: Inhibition of Arachidonic Acid Release from Zymosan Stimulated Macrophages. As to conditions: Mus musculus, Macrophage, inhibition of arachidonic acid release, zymosan stimulated mouse peritoneal macrophages; tested at 100, 50, 20, 10, 5 and 1 μM; ≤100 μM considered active; read-out: Test A IC50. The format is cell-based, mouse (female MF1 mice). As to the method: Test A was carried out in the following way:
Inhibition of Arachidonic Acid Release from Zymosan Stimulated Macrophages
Female MF1 mice (weighing 20 to 25 g) were killed using a rising concentration of CO2. The mice were laid on their backs and the abdomens wiped with 70% alcohol. The skin was pulled back, exposing the peritoneal wall. Medium A (5 ml) (see below) was injected into the peritoneal cavity of each mouse followed by approximately 1 ml of air using a 20 ml syringe and a 21G×40 mm needle in order to form a suspension of macrophage cells. The medium and cells were then removed using a 19G×40 mm needle. The resulting suspension was returned to a sterile beaker kept on ice. The extracts from all the mice were pooled and this pooled cell suspension was counted using a Coulter counter and adjusted to a final cell count of 1-1.3×10^6 cells/ml prior to labelling with [^3 H]-arachidonic acid. Typically five mice provided sufficient cells for each multiwell plate.
Sufficient [^3 H]-arachidonic acid in ethanol to give a final concentration of 1.6 μCi/ml (equivalent to 40 μCi/plate) was blown to dryness under nitrogen. The arachidonic acid was then resuspended in 1 or 2 ml of the cell suspension which was then mixed with the remainder of the cell suspension in a centrifuge bottle. The labelled cell suspension was then plated out into sterile plastic 96 flat-bottomed well plates (250 μl per well) and incubated overnight at 37° C. in a moist atmosphere of 5% CO2, 95% air.
The following day, non-adherent cells were removed by washing 3 times with sterile phosphate buffered saline (PBS). The adherent peritoneal macrophages were then cultured for a further 24 hours in the presence or absence of drugs, in medium B (see below) at 37° in a 5% CO2 atmosphere in order to measure the effects of drugs on the spontaneous release of arachidonic acid in the absence of stimulus. After this incubation, supernatants were removed to give media 1 and stored in sealed multi-well plates at 4° C. prior to scintillation counting. Drugs which potentiated spontaneous release of arachidonic acid (125% of controls) were deemed to be toxic at the concentration at which this phenomenon occurred. The supernatants were replaced by fresh medium C containing fresh drug and a stimulus. Three drugs were tested at six concentrations (100, 50, 20, 10, 5 and 1 μM) in replicates of four on each plate. The other wells contained controls consisting of a positive control (e.g. dexamethasone), medium (B) only and medium C only.
Incubation was then continued for a further 5 hours, whereupon the supernatants were collected to give media 2 and the adherent cells washed with PBS. The cells were then lysed with 100 μl of 0.1% TRITON® X100 in a 0.1% solution of bovine serum albumin in 0.9% saline and mechanically disrupted to give cell lysates. These supernatants (media 2) and cell lysates (Cells) were also stored in sealed multi-well plates at 4° C. prior to scintillation counting. 200 μl aliquots of media, or 100 μl aliquots of cells were counted using 2 ml of OPTIPHASE "HIGH SAFE" (Trademark of LKB) as scintillant.
The percentage of arachidonic acid released was calculated using the mean values for each group of 4 wells in the following equation. [formula]
The value for the arachidonic acid release in the absence of stimulus (spontaneous, cpm of media 2) from cells which had been exposed to neither stimulus nor drug was subtracted from all equivalent values (cpm media 2, stimulated with or without drug) to give the net stimulated release. The percentage inhibition of arachidonic acid release caused by a drug may then be calculated using the following equation. [formula]
Compounds of formula I were tested at six concentrations (100, 50, 20, 10, 5 and 1 μM) and IC50 values calculated. Compounds with IC50 values≤100 μM are considered to be active. Advantageous compounds have an IC50 value<50 μM.
Medium A (for peritoneal lavage) […]
Regarding `CCc1ccc(OCCNCCCn2ccnc2)cc1` [Example 5, N-[2-(4-Ethylphenoxy)ethyl]-3-(imidazol-1-yl)propylamine], the pIC50 is 4.77.

For the compound `CC(C)(NCCCn1ccnc1)c1ccc(CC(=O)NC2CCCCCC2)cc1` [Example 37, N-Cycloheptyl-4-{1-[3-(imidazol-1-yl)propylamino]-1-methylethyl}phenylacetamide], the pIC50 was 4.31.

As to `CC(C)(NCCCn1ccnc1)c1ccc(C(=O)NC2CCCCC2)cc1` [Example 28, N-Cyclohexyl-4-{1-[3-(imidazol-1-yl)propylamino]-1-methylethyl}benzamide], the pIC50 is 4.60.

As to `CCCCNCc1cn(CCCNC(C)(C)c2ccc(Cl)cc2)cn1` [Example 82, 3-[4-(butylaminomethyl)imidazol-1-yl]-N-[1-(4-chlorophenyl)-1-methylethyl]propylamine], the pIC50 is 4.77.

With `CCC(CC)(CO)c1ccc(C(C)(C)NCCCn2ccnc2)cc1` [Example 41, 2-Ethyl-2(4-{1-[3-(imidazol-1-yl)propylamino]-1-methylethyl}phenyl)butan-1-ol], the pIC50 is 5.00.

On to `Clc1ccc(CCCNCCCn2ccnc2)cc1` [Example 14, 3-(4-Chlorophenyl)-3'-(imidazol-1-yl)dipropylamine], for which the pIC50 was 5.22.

Turning to `CCCCS(=O)(=O)Oc1ccc(C(C)(C)NCCCn2ccnc2)cc1` [Example 72, 4-{1-[3-(imidazol-1-yl)propylamino]-1-methylethyl}phenyl 1-butanesulphonate], the pIC50 was 4.62.

With `CC(C)(NCCCc1nccn1Cc1ccccc1)c1ccc(Cl)cc1` [Example 86, 3-(1-benzylimidazol-2-yl)-N-[1-(4-chlorophenyl)-1-methylethyl]propylamine], the negative logarithm of the IC50 (pIC50) is 5.52.

Consider `CC(C)(COc1ccccc1)NCCCn1cnc(CCNS(=O)(=O)c2ccccc2)c1` [Example 77, N-(2-{1-[3-(1,1-dimethyl-2-phenoxyethylamino)propyl]imidazol-4-yl}ethyl]benzene-sulphonamide], for which the pIC50 was 4.92.

Regarding `CC1(C)COC(c2ccc(C(C)(C)NCC(O)Cn3ccnc3)cc2)=N1` (stereo not shown) [Example 49, 1-{1-[4-(4,4-Dimethyl-2-oxazolin-2-yl)phenyl]-1-methylethylamino}-3-(imidazol-1-yl)propan-2-ol hemihydrate], the pIC50 was 4.15.

With `CCCN(CCC)S(=O)(=O)c1ccc(C(C)(C)NCCCn2ccnc2)cc1` [Example 26, 4-{1-[3-(Imidazol-1-yl)propylamino]-1-methylethyl}-N,N-dipropylbenzenesulphonamide], the negative-log IC50 (pIC50) is 5.00.

Regarding `Cc1cc(S(=O)(=O)CC(C)(C)NCCCn2ccnc2)c(C)cc1Cl` [Example 69, N-[2-(4-chloro-2,5-xylylsulphonyl)-1,1-dimethylethyl]-3-(imidazol-1-yl)propylamine dihydrochloride hemihydrate], the pIC50 is 4.30.

For the compound `CC(C)(COc1ccccc1)NCCCCCn1ccnc1` [Example 75, 5-(imidazol-1-yl)-N-(1,1-dimethyl-2-phenoxyethyl)pentylamine], the pIC50 is 4.59.

In the case of `CC(C)(COc1ccc(C2=NCCS2)cc1)NCCCn1ccnc1` [Example 109, N-[1,1-dimethyl-2-[4-(4,5-dihydrothiazol-2-yl)phenoxy]ethyl}-3-(imidazol-1-yl)propylamine dimaleate], the pIC50 is 4.48.

As for `CC(C)(NCCCc1c[nH]cn1)c1ccc(Cl)cc1` [Example 84, N-[1-(4-chlorophenyl)-1-methylethyl]-3-(imidazol-4(5)-yl)propylamine], the negative logarithm of the IC50 (pIC50) is 4.82.

`Cc1cc(SCC(C)(C)NCCCn2ccnc2)c(C)cc1Cl` [Example 20, N-[2-(4-Chloro-2,5-xylylthio)-1,1-dimethylethyl]-3-(imidazol-1-yl)propylamine dihydrochloride]: the negative-log IC50 (pIC50) is 5.40.

As for `CCCOC(=O)c1ccc(C(C)(C)NCC(O)Cn2ccnc2)cc1` (stereo not shown) [Example 74, propyl 4-{1-[2-hydroxy-3-(imidazol-1-yl)propylamino]-1-methylethyl}benzoate], the pIC50 was 4.09.

Regarding `Cc1ccc(S(=O)(=O)Cc2ccc(C(C)(C)NCCCn3ccnc3)cc2)cc1C` [Example 24, 3-(imidazol-1-yl)-N-{1-methyl-1-[4-(3,4-xylylsulphonylmethyl)phenyl]ethyl}propylamine dihydrochloride hydrate], the negative-log IC50 (pIC50) is 4.66.

Regarding `COc1ccc(S(=O)(=O)NCCc2ccc(C(C)(C)NCCCn3ccnc3)cc2)cc1` [Example 42, N-[2-(4-{1-[3-(Imidazol-1-yl)propylamino]-1-methylethyl}phenyl)ethyl]-4-methoxybenzenesulphonamide], the pIC50 was 5.05.

Turning to `CC(C)(NCCCn1ccnc1C(O)c1ccccc1)c1ccc(Cl)cc1` (stereo not drawn) [Example 23, α-(1-{3-[1-(4-Chlorophenyl)-1-methylethylamino]propyl}-imidazol-2-yl)benzyl alcohol], the pIC50 is 5.15.

`CC(C)(COC(=O)c1ccc(Cl)cc1)NCCCn1ccnc1` [Example 79, 2-[3-(imidazol-1-yl)propylamino]-2,2-dimethylethyl 4-chlorobenzoate dihydrochloride]: the pIC50 was 4.70.

In the case of `CCC(CC)(NCC(O)Cn1ccnc1)c1ccccc1` (stereo not shown) [Example 44, 1-(1-Ethyl-1-phenylpropylamino)-3-(imidazol-1-yl)-propan-2-ol], the negative-log IC50 (pIC50) was 3.92.

Turning to `CCCCNC(=O)NCCc1ccc(C(C)(C)NCCCn2ccnc2)cc1` [Example 58, N-butyl-N'-[2-(4-{1-[3-(imidazol-1-yl)propylamino]-1-methylethyl}phenyl)ethyl]urea], the pIC50 was 4.70.

With `CCC(CC)(NCCCn1cnc(CCNC(=O)c2ccc(C#N)cc2)c1)c1ccccc1` [Example 62, 4-cyano-N-(2-{1-[3-(1-ethyl-1-phenylpropylamino)propyl]imidazol-4-yl}ethyl)benzamide], the pIC50 was 4.85.

Take `CSc1ccc(OCC(C)(C)NCC(O)Cn2ccnc2)cc1` (stereo not shown) [Example 51, 3-(Imidazol-1-yl)-1-[2-(4-methylthiophenoxy)-1,1-dimethylethylamino]propan-2-ol]: the pIC50 was 4.06.

Regarding `CC(C)(C[S+]([O-])c1ccc(Cl)cc1)NCCCn1ccnc1` (stereo not shown) [Example 68, N-[2-(4-chlorophenylsulphinyl)-1,1-dimethylethyl]-3-(imidazol-1-yl)propylamine dihydrochloride], the pIC50 was 4.00.

Take `CC(C)(CS(=O)(=O)c1ccc(C(C)(C)C)cc1)NCCCn1ccnc1` [Example 70, N-[2-(4-t-butylphenylsulphonyl)-1,1-dimethylethyl]-3-(imidazol-1-yl)-propylamine dihydrochloride]: the negative-log IC50 (pIC50) was 4.08.

As to `N#Cc1ccc(OCCNCCCn2ccnc2)cc1` [Example 31, 4-{2-[3-(Imidazol-1-yl)propylamino]ethoxy}benzonitrile sesquihydrochloride], the negative-log IC50 (pIC50) is 4.13.

As for `COC(=O)CN(CCCn1ccnc1)CCOc1ccc(Cl)cc1` [Example 65, methyl N-[2-(4-chlorophenoxy)ethyl]-N-[3-(imidazol-1-yl)propyl]glycinate], the pIC50 is 4.06.

The same assay, now with this note: Mus musculus, Macrophage, read-out: Test A IC50.
For the compound `CC(C)(NCCCn1ccnc1)c1ccc(-c2ccc(O)cc2)cc1` [Example 59, 4'-{1-[3-(imidazol-1-yl)propylamino]-1-methylethyl}biphenyl-4-ol], the pIC50 was 5.10.

Staying with this assay, now noted: inhibition of arachidonic acid release, zymosan stimulated mouse peritoneal macrophages; tested at 100, 50, 20, 10, 5 and 1 μM; ≤100 μM considered active; read-out: Test A IC50.
For the compound `CC(C)(NCC(O)Cn1ccnc1)c1ccc(Cl)cc1` (single isomer, unassigned; (-)) [Example 46, (-)-1-[1-(4-Chlorophenyl)-1-methylethylamino]-3-(imidazol-1-yl)propan-2-ol], the negative-log IC50 (pIC50) was 4.10.
